{
  "source": "patent US20100221773A1",
  "about": "“Nucleic Acids Encoding a Functional Mammalin Purinoreceptor, P2X3, Methods of Production and Use Thereof” (priority 2005, published 2010)",
  "key": {"rhesus P2X3 receptor [1]": {"molecular_target": "T1, rhesus P2X3 receptor (Macaca mulatta, UniProt A0A1D5QSM7)", "experiment": "In vitro electrophysiological assay (whole-cell patch clamp, PatchXpress)", "format": "cell-based", "conditions": "for IC50: 100 μM CTP, antagonist preincubation 2 min, whole-cell patch clamp, read-out: IC50, inhibition of CTP-induced currents", "procedure": "(§1) Generation of a Rhesus P2X3 Stable Cell Line—Rhesus P2X3 receptor cDNA was subcloned as a 5′HindIII and 3′XhoI fragment into the expression vector pcDNA5/FRT/TO (Invitrogen). Five micrograms of the rhesus P2X3 expression construct was transfected using Lipofectamine 2000 (Invitrogen) into Flp-in T-Rex—293 cells (Invitrogen) according to the manufacturer's directions. Cells positive for flp-mediated recombination of rhesus P2X3 were selected using 300 μg/ml hygromycin. The stable rhesus P2X3 cell line was propagated in DMEM, 10% FBS, 150 μg/ml hygromycin, 15 μg/ml blasticidin, and 100 units/ml penicillin and 100 μg/ml streptomycin, and maintained at 37° and 95% humidity. Cells were subcultured by treatment with 0.25% trypsin with 0.1% EDTA in HBSS.\nIn vitro Electrophysiological Assay—Cells expressing rhesus P2X3 receptor were grown to a confluence of 65-85% and induced with 1 μg/ml doxycycline 20 to 32 hours prior to assay. After induction the cells were dissociated with trypsin, centrifuged, and resuspended in bath solution at a cell density of 6×10^6 cells/ml and loaded onto PatchXpress. The bath solution contained 150 mM NaCl, 4 mM KCl, 2 mM CaCl2, 1.2 mM MgCl2, 10 mM HEPES, and 11.1 mM glucose, at pH 7.2. The intracellular solution contained 140 mM K-aspartate, 20 mM NaCl, 5 mM HEPES, 10 mM EGTA, at pH 7.2. Agonist stock solutions were prepared in H2O and diluted in bath solution prior to use. All antagonists were prepared as 10 mM stock solutions in DMSO and diluted in bath solution prior to use. All experiments were performed on cells under the whole-cell patch clamp configuration at room temperature. Up to 16 individual cells could be patch clamped simultaneously on the PatchXpress instrument. A baseline response was established by repeated CTP (100 μM; for 2 sec.) followed by antagonist incubation for 2 min. in the absence of CTP. After antagonist preincubation 100 μM CTP and antagonist were co-administered to determine the inhibitory effect of the antagonist. These steps were then repeated on the same cell with a range of concentrations of the antagonist. A maximum of five concentrations of antagonist were tested on any individual cell. The control P2X3 current amplitude (IP2X3-(control)) was taken as an average of the peak current amplitude from the last two agonist additions prior to incubation with an antagonist. The peak P2X3 current amplitude in the presence of an antagonist (IP2X3-(drug)) was used to calculate the inhibitory effect at each concentration of the antagonist according to the following equation:\n% inhibition of P2X3=100*(IP2X3-(control)−IP2X3-(drug))/IP2X3-(control)\nEach concentration of an antagonist was tested on at least three independent cells. […]"}, "rhesus P2X3 receptor [2]": {"molecular_target": "T1, rhesus P2X3 receptor", "experiment": "Intracellular calcium measurement (FLIPR, Fluo-3) to assess antagonist affinity", "format": "cell-based", "conditions": "for IC50: FLIPR, Flp-in T-Rex-293 cells stably expressing rhesus P2X3, antagonist 10 min before agonist αβ-meATP, read-out: IC50, block of αβ-meATP mediated increase in intracellular calcium", "procedure": "as §1\nIntracellular Calcium Measurement to Assess Antagonist Affinity—A fluorescent imaging plate reader (FLIPR; Molecular Devices) was used to monitor intracellular calcium levels using the calcium-chelating dye Fluo-3 (Molecular Probes). Cells expressing the rhesus P2X3 receptor were plated in the presence of 0.5 to 1 μg/ml doxycycline at a density of 30,000 cells/well in 384-well black-walled plates approximately 20 hours before beginning the assay. Cells were washed with HBSS and dye-loaded in HBSS, 2 mM CaCl2, 0.1% BSA, 0.25 mM probenecid, and 4 μM Fluo-3 for 60 min in the dark at room temperature. Prior to compound additions cells were washed with HBSS. Antagonist affinity was determined by the ability of these compounds to inhibit increases of intracellular calcium elicited by the P2X3 agonist αβ-meATP. Ten minutes prior to adding agonist, the antagonist was added and allowed to incubate at room temperature. Following agonist addition fluorescence data was collected at 5 sec intervals and analyzed based on the increase in peak relative fluorescence units (RFU) compared to the basal fluorescence. Antagonist dose-response data expressed as a response ratio (max RFU/min RFU) were analyzed using GraphPad Prism."}},
  "data": [
    {"smiles": "Cc1nc(N=Nc2ccc(S(=O)(=O)O)cc2S(=O)(=O)O)c(COP(=O)(O)O)c(C=O)c1O", "note": "[PPADS, pyridoxal-phoshpate-6-azophenyl-2′,4′-disulfonic acid]", "values": [
      {"measurement": "IC50", "setting": "rhesus P2X3 receptor [1]; FIG. 3", "value": 2200, "unit": "nM"},
      {"measurement": "rhesus P2X3 inward current elicited by CTP in the presence of antagonist", "setting": "rhesus P2X3 receptor [1]; FIG. 3A, 3 μM PPADS, 100 mM CTP (control) as printed", "value": "diminished"},
      {"measurement": "blockade of αβ-meATP activated Ca2+ influx", "setting": "rhesus P2X3 receptor [2]; FIG. 1, cells incubated with PPADS for 10 min prior to agonist, FLIPR traces", "value": "dose-dependent blockade"},
      {"measurement": "IC50", "setting": "rhesus P2X3 receptor [2]", "value": 2900, "unit": "nM"}
    ]},
    {"smiles": "Cc1ccc(C(=O)Nc2ccc(S(=O)(=O)O)c3cc(S(=O)(=O)O)cc(S(=O)(=O)O)c23)cc1NC(=O)c1cccc(NC(=O)Nc2cccc(C(=O)Nc3cc(C(=O)Nc4ccc(S(=O)(=O)O)c5cc(S(=O)(=O)O)cc(S(=O)(=O)O)c45)ccc3C)c2)c1", "note": "[suramin]", "values": [
      {"measurement": "IC50", "setting": "rhesus P2X3 receptor [1]", "value": 382, "unit": "nM"},
      {"measurement": "IC50", "setting": "rhesus P2X3 receptor [2]", "value": 1500, "unit": "nM"}
    ]},
    {"smiles": "Nc1ncnc2c1ncn2[C@@H]1O[C@H](COP(=O)(O)CP(=O)(O)OP(=O)(O)O)[C@@H](O)[C@H]1O", "note": "[αβ-meATP]", "values": [
      {"measurement": "EC50", "setting": "rhesus P2X3 receptor [1]; patch-clamp, rhesus P2X3 stable cell line, FIG. 2, read-out: EC50, inward current evoked by agonist", "value": 1000, "unit": "nM"}
    ]}
  ]
}
